In one assay the test system is adhesion to vitronectin. The experiment in a line: Adhesion to vitronectin. In kind it is cell-based. The source says: (§1) The ganglioside specifically interacts through carbohydrate moieties, with preference for the a5 subunit of the a5b1. […] Although any interaction between ganglioside and integrin b1 is much weaker, GT1b is able to bind b1 and, by doing so, inhibits b1 phosphorylation and serine/threonine phosphorylation.

The target in another assay is Integrin avb3 (Homo sapiens, UniProt P05106+P06756). Nature of the assay: Binding of ganglioside to integrin avb3.
The next assay has as its system FAK. The experiment in a line: Phosphorylation of FAK. In kind it is cell-based.
Text: as §1

Assay [1] concerns keratinocytes and keratinocyte-derived cells. Nature of the assay: Migration of keratinocytes and keratinocyte-derived cells on fibronectin. In kind it is cell-based. Particulars: fibronectin substrate. The source says:
(§2) Keratinocyte motility on a fibronectin substrate is critical in the reepithelialization of healing wounds, and in the spread of cutaneous malignancy. We discovered that gangliosides GT1b and GD3 inhibit the adhesion to and migration of keratinocytes and keratinocyte-derived cells on fibronectin (See, Paller, A. S., et al., J. Invest. Dermatol., 105:237-242 (1995); Sung, C-C., et al., Exp. Cell Res., 239:311-319 (1998); Wang, X-Q, et al., J. Biol. Chem., 276(48):44504-44511 (2001) each incorporated by reference). Conversely, endogenous depletion of gangliosides through sialidase gene modulation leads to increased adhesion of the cells to fibronectin and vitronection. Gangliosides also trigger the apoptosis of keratinocytes when plated on a fibronectin matrix.

The next assay addresses T1, keratinocyte a5b1 (Homo sapiens, UniProt P05556+P08648).
T1 construct: endogenous in cells; host or cells: keratinocytes
The experiment in a line: Direct interaction of ganglioside with keratinocyte a5b1. Format: binding. Particulars: through carbohydrate moieties.
Text: as §1

A further assay concerns integrin-linked kinase. Nature of the assay: Phosphorylation of integrin-linked kinase. In kind it is cell-based.
Text: as §1

The subject of the next assay is MMP-2. Nature of the assay: MMP-2 expression and activity in keratinocyte-derived SCC12 cells. In kind it is cell-based. The protocol:
(§3) In contrast, inhibitors of protein kinase C (PKC) decrease the expression of TIMP-1 in SCC12 cells without altering MMP-9 expression. […] When both activators of PKC and gangliosides GT1b or GD3 are incubated together with the SCC12 cells, no change in the expression or activity of MMP-2 is noted. These studies provide evidence that more highly sialylated gangliosides modulate MMP-2 expression and activity in keratinocytes through a mechanism that involves suppression of the PKC signaling pathway.

Assay [2] deals with keratinocytes and keratinocyte-derived cells. Nature of the assay: Adhesion of keratinocytes and keratinocyte-derived cells to fibronectin. Format: cell-based. Particulars: fibronectin substrate.
Text: as §2

Assay [3] addresses T2, epidermal growth factor receptor (Homo sapiens, UniProt P00533).
T2 construct: epidermal growth factor receptor in keratinocytes; endogenous in cells; host or cells: keratinocytes
Nature of the assay: Direct binding of ganglioside to the epidermal growth factor receptor in keratinocytes. The source says:
(§4) The mechanism for the overgrowth of skin cells depleted of gangliosides and for the inhibition of growth of skin cells with increased ganglioside GM3 is decreased availability of the epidermal growth factor receptor for binding to its ligands (epidermal growth factor and transforming growth factor-α). […] Also affected are downstream components in the epidermal growth factor signaling transduction pathway, e.g. GM3 downregulates the phosphorylation of MAP kinase and PI3 kinase.

The next assay has as its system MAP kinase. The experiment in a line: Phosphorylation of MAP kinase (EGF signalling pathway). In kind it is cell-based.
Text: as §4

For the next assay, the system named is TIMP-1. The experiment in a line: TIMP-1 expression in keratinocyte-derived cells. In kind it is cell-based. The protocol: as §3
The test system of another assay is skin cells. Nature of the assay: Proliferation of skin cells. Format: cell-based. The source says:
One manifestation of basal cell and squamous cell cancers of the skin, psoriasis, and genetic disorders of skin overgrowth, such as certain forms of ichthyosis, is excessive proliferation of skin. In our experiments, we have noted that alterations in ganglioside content, whether by pharmacologic manipulation or endogenous alteration through gene therapy, also affect the growth of skin cells. […] We have now determined that a decrease in the same gangliosides would increase the proliferation of skin cells; in fact, we have determined that transfection of a sialidase gene that cleaves the sialic acid group(s) from all gangliosides results in total ganglioside depletion, and leads to increased proliferation of skin cells. […] We believe that a number of other gangliosides have similar effects, as described below, and could be used in therapeutic treatments.

For the next assay, the system named is MMP-9. Nature of the assay: MMP-9 expression and activity in keratinocyte-derived cells. Format: cell-based. As to the method:
as §3

A further assay deals with PI3 kinase. Nature of the assay: Phosphorylation of PI3 kinase (EGF signalling pathway). In kind it is cell-based.
Text: as §4

Assay [4] deals with T3, integrin b1 (Homo sapiens, UniProt P05556). The experiment in a line: Binding of ganglioside to integrin b1.
Text: as §1

The target of assay [5] is T3, integrin b1. Nature of the assay: Phosphorylation of integrin b1. Format: cell-based.
Text: as §1

In assay [6] the test system is explant cultures from patients with psoriasis. Nature of the assay: Attachment of explant cultures from patients with psoriasis. Format: cell-based. From the text:
The interaction of a5b1 and fibronectin is considered critical for embryonic development of skin, healing of wounds and spread of cutaneous malignancies. In addition, it is known in the art that cells from patients with psoriasis have shown increased adherence to fibronectin and a decreased ability to undergo apoptosis. […] Integrin avb3 plays a vital role in the development and proliferation of blood vessels in skin; increased activity leads to neovascularization, while inhibition can inhibit new vessel formation. Thus, an increase in more complex skin gangliosides, particularly GT1b, may be novel agents for treating psoriasis or in inhibiting vascular-dependent processes, such as the rapid growth of hemangiomas in infants. In contrast, depletion of gangliosides (e.g., through increased local sialidase activity) may encourage wound healing, through increasing the migration of keratinocytes, increasing keratinocyte proliferation, and encouraging angiogenesis. Thus, the invention includes administering gangliosides including but not limited to GT1b and GD3, and other agents that affect the amount and action of these gangliosides, to control fibronectin interactions.

A further assay concerns TIMP-2. Nature of the assay: TIMP-2 expression in keratinocyte-derived SCC12 cells. In kind it is cell-based. The protocol: as §3
[7] abbreviates: ganglioside incubated together with activators of PKC, SCC12 cells.
Setting [8] is: keratinocyte-derived SCC12 cells.
Setting [9] is: pharmacologic addition to normal keratinocyte-derived cells.

T3 sequence (P05556 21-798): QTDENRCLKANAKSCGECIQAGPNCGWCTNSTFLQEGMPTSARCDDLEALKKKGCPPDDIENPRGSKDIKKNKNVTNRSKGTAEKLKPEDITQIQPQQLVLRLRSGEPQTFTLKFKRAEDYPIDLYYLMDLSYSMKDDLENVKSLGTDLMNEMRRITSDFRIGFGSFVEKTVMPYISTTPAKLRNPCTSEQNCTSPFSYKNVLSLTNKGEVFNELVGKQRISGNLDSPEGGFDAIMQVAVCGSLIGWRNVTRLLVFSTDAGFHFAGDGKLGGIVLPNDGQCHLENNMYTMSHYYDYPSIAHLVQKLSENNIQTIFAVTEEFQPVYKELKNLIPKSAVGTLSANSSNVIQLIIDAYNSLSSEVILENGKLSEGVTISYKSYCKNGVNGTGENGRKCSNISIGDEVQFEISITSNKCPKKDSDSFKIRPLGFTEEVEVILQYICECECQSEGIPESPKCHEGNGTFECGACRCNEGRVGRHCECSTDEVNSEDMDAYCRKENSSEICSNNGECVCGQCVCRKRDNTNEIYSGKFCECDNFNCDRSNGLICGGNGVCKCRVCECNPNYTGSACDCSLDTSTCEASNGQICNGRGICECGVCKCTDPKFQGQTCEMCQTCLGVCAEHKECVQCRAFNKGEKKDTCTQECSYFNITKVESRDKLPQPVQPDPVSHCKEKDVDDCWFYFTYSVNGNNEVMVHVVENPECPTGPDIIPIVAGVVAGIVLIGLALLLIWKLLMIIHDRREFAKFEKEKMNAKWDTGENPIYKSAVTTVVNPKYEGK
T3 sequence (P08648 42-894 partner limits assumed): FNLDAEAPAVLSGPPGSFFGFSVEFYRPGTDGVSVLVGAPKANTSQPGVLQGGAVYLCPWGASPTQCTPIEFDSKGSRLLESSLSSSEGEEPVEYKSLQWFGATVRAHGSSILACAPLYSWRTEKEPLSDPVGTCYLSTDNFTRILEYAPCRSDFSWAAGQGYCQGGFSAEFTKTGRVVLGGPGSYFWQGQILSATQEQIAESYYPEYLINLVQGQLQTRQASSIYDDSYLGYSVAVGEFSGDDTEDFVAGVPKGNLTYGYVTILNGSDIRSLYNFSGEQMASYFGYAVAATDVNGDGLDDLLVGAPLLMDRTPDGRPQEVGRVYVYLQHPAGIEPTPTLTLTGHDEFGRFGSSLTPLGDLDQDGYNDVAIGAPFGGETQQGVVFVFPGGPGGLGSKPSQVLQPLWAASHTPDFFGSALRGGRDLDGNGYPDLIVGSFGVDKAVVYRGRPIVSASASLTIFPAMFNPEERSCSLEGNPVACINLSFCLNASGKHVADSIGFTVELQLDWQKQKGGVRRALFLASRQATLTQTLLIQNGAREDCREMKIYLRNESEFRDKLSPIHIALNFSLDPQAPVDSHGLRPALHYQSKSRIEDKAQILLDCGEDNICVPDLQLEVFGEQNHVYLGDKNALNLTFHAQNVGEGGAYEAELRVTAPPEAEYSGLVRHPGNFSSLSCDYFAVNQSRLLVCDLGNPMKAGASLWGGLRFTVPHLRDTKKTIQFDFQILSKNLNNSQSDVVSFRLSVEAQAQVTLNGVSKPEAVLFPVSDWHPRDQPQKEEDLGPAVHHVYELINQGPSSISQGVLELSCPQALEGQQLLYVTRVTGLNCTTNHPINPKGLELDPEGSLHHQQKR
T3 sequence (P08648 895-1049 partner limits assumed): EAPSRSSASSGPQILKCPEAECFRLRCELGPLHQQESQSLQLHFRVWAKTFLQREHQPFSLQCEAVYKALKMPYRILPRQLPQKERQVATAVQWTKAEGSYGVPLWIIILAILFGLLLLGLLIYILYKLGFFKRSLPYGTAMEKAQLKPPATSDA
Integrin avb3, sequence (P06756 31-889 limits assumed): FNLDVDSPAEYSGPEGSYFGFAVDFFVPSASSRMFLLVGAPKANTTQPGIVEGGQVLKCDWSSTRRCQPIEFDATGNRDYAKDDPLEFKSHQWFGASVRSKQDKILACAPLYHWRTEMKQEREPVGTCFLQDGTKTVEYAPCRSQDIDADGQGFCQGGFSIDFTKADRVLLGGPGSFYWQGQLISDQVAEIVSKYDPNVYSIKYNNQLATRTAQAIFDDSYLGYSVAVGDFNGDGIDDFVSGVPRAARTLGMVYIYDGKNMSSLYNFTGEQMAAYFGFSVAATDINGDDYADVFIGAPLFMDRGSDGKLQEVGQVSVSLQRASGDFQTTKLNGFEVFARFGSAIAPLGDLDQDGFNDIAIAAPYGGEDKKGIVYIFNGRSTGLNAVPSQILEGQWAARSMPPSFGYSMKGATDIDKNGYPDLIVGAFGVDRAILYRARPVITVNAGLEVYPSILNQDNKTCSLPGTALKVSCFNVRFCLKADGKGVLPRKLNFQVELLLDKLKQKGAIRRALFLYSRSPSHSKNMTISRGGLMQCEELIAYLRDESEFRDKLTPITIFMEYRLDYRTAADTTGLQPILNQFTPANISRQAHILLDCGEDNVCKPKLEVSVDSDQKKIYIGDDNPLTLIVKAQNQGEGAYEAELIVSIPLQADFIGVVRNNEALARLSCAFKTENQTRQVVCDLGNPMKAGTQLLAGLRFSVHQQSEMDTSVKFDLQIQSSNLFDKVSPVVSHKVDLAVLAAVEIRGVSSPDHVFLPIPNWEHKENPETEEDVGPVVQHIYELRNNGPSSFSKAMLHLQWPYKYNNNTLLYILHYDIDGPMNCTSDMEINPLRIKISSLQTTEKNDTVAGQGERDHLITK
Integrin avb3, sequence (P06756 891-1048 limits assumed): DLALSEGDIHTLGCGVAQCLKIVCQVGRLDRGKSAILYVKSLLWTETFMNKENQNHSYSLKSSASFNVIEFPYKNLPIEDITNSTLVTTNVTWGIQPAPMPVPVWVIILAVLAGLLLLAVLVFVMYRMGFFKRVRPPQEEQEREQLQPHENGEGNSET
Integrin avb3, sequence (P05106 27-788): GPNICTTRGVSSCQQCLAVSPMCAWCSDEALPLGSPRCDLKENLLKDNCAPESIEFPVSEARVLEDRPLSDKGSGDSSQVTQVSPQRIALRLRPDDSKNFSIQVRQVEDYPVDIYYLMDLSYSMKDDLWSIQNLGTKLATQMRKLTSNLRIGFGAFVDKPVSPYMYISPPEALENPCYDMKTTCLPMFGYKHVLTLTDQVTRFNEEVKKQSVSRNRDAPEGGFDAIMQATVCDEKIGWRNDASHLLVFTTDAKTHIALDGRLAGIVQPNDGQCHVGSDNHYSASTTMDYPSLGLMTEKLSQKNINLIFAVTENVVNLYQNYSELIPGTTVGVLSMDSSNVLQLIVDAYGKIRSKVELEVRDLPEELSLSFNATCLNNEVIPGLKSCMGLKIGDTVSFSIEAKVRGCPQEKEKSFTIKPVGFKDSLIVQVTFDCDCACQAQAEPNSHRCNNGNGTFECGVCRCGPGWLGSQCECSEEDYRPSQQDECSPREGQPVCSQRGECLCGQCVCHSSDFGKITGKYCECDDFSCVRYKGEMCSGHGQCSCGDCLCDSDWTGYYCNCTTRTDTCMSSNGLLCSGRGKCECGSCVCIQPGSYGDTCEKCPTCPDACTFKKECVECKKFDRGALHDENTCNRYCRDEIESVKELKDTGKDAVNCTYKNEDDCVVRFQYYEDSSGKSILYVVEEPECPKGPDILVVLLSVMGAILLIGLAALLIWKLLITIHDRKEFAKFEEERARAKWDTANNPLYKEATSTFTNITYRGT
T1 sequence (P08648 42-894 limits assumed): as the sequence (P08648 42-894 partner limits assumed) above
T1 sequence (P08648 895-1049 limits assumed): as the sequence (P08648 895-1049 partner limits assumed) above
T1 sequence (P05556 21-798): as the sequence (P05556 21-798) above

With GD2, the adhesion to vitronectin result in the assay with adhesion to vitronectin was “limit the adhesion”. Besides, the “binding to integrin avb3” value on Integrin avb3 is on record as “binds”.

Take GD3: in the assay with FAK, the “phosphorylation of FAK” value is listed as “inhibition of phosphorylation”. Further, the adhesion to vitronectin entry in the assay on adhesion to vitronectin is “limit the adhesion”. Moreover, the “migration of keratinocytes and keratinocyte-derived cells on fibronectin” value in assay [1] is given as “inhibit”. In addition, the “interaction with keratinocyte a5b1” value on keratinocyte a5b1 was “direct interaction”. In addition, in the assay on integrin-linked kinase, the “phosphorylation of integrin-linked kinase” value is reported as “inhibition of phosphorylation”. Also, the “activity of MMP-2” value in the assay on MMP-2 (setting [7]) was “no change”; in the assay with MMP-2 (setting [8]) it was “inhibit”. For the same substance, the “expression of MMP-2” value in the assay with MMP-2 (setting [7]) is given as “no change”; in the assay on MMP-2 (setting [8]), “inhibit”. The “binding to integrin avb3” value on Integrin avb3 is given as “binds”. Also, the “adhesion of keratinocytes and keratinocyte-derived cells to fibronectin” value in [2] is listed as “inhibit”.

Regarding GM3, the “binding to the carbohydrate moieties of the epidermal growth factor receptor” value in assay [3] was “direct binding”. Besides, the “phosphorylation of MAP kinase” value in the assay with MAP kinase was “downregulates”. The “expression of TIMP-1” value in the assay with TIMP-1 (setting [9]) is given as “marked suppression”. For the same substance, the “proliferation of skin cells” value in the assay with skin cells (pharmacologic addition of ganglioside) is listed as “inhibit the proliferation”. In the assay on MMP-9 (setting [9]), the “activity of MMP-9” value is recorded as “without affecting” and the “expression of MMP-9” value is “marked suppression”. The “phosphorylation of PI3 kinase” value in the assay with PI3 kinase is reported as “downregulates”.

Turning to GT1b, in the assay on FAK, the “phosphorylation of FAK” value is “inhibition of phosphorylation”. Moreover, the “expression of TIMP-1” value with TIMP-1 (setting [9]) is “marked suppression”. Besides, the “migration of keratinocytes and keratinocyte-derived cells on fibronectin” value in assay [1] is on record as “inhibit”. In addition, the “interaction with keratinocyte a5b1” value on keratinocyte a5b1 is recorded as “direct interaction”. The “phosphorylation of integrin-linked kinase” value with integrin-linked kinase was “inhibition of phosphorylation”. For the same substance, the “binding to integrin b1” value at integrin b1 [4] is recorded as “able to bind”. For the same substance, in the assay on MMP-2 (setting [7]), the “activity of MMP-2” value is reported as “no change” and the “expression of MMP-2” value is recorded as “no change”. In the assay with MMP-2 (setting [8]), the “activity of MMP-2” value is reported as “inhibit” and the “expression of MMP-2” value was “inhibit”. Besides, the b1 phosphorylation result on integrin b1 [5] was “inhibits”. The serine/threonine phosphorylation entry at integrin b1 [5] (on binding of b1) is on record as “inhibits”. Further, in the assay on MMP-9 (setting [9]), the “activity of MMP-9” value is “without affecting” and the “expression of MMP-9” value is “marked suppression”. In [6], the “attachment of explant cultures” value is “clear inhibition of attachment”. Besides, the “adhesion of keratinocytes and keratinocyte-derived cells to fibronectin” value in assay [2] was “inhibit”.

Regarding PIP3 [reference compound], in the assay on MMP-2 (setting [8]), the “activity of MMP-2” value is on record as “increased” and the “expression of MMP-2” value is reported as “increased”. In addition, the TIMP-2 expression result with TIMP-2 was “only slightly increase”.

concanavalin A [reference compound]: in the assay on MMP-2 (setting [8]), the “activity of MMP-2” value is “increased” and the “expression of MMP-2” value is on record as “increased”. Besides, in the assay on TIMP-2, the TIMP-2 expression result is listed as “only slightly increase”.

Regarding “epidermal growth factor [reference compound]”, the “expression of TIMP-1” value with TIMP-1 (SCC12 cells) was “does not affect”. Moreover, the “proliferation of skin cells” value in the assay with skin cells (added to sialidase-transfected (ganglioside-depleted) cells in culture) is reported as “further accentuated”. Further, in the assay with MMP-9 (SCC12 cells), the “activity of MMP-9” value is reported as “increases its activity” and the “expression of MMP-9” value is given as “further increased”.

The record behind these values is patent US20020122795A1, “Compositions containing gangliosides for use in the treatment of skin disorders” (priority 2000, published 2002).
